Experimental findings from US20020155443A1, “Metal binding DNA interactive compounds” (priority 2000, published 2002) are described below.

Bounds are passed on as bounds.

Format in all cases: cell-based
The test system of experiment [1] is B16 murine melanoma cells. Nature of the experiment: Growth inhibition of B16 murine melanoma cells, MTT assay. The following applies: B16 melanoma cells; read-out: IC50, growth inhibition. How it is done:
(§1) The growth inhibitory activities of bis(propargylic) sulfone crown ethers 2.47 and 2.48 against B16 murine melanoma cells were determined calorimetrically with an MTT assay conducted by the Institute for Drug Development at the Cancer Research and Therapy Center in San Antonio, Tex.
A general note: Formazan colour is commonly taken as a measure of viable cells.

For the next experiment, the system named is SN12C. The experiment can be described thus: DTP Human Tumor Cell Line Screen, sulforhodamine B assay. As to conditions: Renal Cancer, 48 h. How it is done:
(§2) The growth inhibitory activity of propargylic sulfone 3.2 against a wide range of human cancer cell lines was determined calorimetrically with sulforhodamine B assay conducted by the National Cancer Institute of the National Institutes of Health.
(§3) The in vitro cytotoxicity of compounds 2.47, 2.48 and 3.2 were investigated using the DTP Human Tumor Cell Line Screen. The concept, rationale and history of development of the DTP Human Tumor Cell Line Screen were described by Boyd (1993;1997)^8.4, 8.6 and Boyd and Paull (1995)^8.5. Further technical details of the NCI screening procedures were described (Monks, et. al.)^8.2 as were the origins and processing of the cell lines (Alley, et. al., Shoemaker, et. al., Stinson, et. al.). Briefly, cell suspensions that were diluted according to the particular cell type and the expected target cell density (5000-40,000 cells per well based on cell growth characteristics) were added by pipet (100 μL) into 96-well microtiter plates. Inoculates were allowed a preincubation period of 24 h at 37° C. for stabilization. Dilutions at twice the intended test concentration were added at time zero in 100-μL aliquots to the microtiter plate wells. Usually, test compounds were evaluated at five 10-fold dilutions. In routine testing, the highest well concentration is 10E-4 M, but for the standard agents the highest well concentration used depended on the agent. Incubations lasted for 48 h in 5% CO2 atmosphere and 100% humidity. The cells were assayed by using the sulforhodamine B assay (Rubinstein, et. al., Skehan, et. al.). A plate reader was used to read the optical densities, and a microcomputer processed the optical densities into the special concentration parameters.
In general terms: Sulforhodamine B stains cellular protein and so reports cell mass.

A further experiment concerns T-47D. The experiment is described as above. As to conditions: Breast Cancer, 48 h. How it is done:
as §2, §3

A further experiment relates to A-549/ATCC. The experiment is described as above. As to conditions: 48 h. How it is done:
as §2, §3

The subject of another experiment is SF-295. The experiment is described as above. As to conditions: CNS Cancer, 48 h. How it is done: as §2, §3
The subject of the next experiment is NCI-H522. Described as above. The following applies: Non-Small Cell Lung Cancer, 48 h. On the procedure:
as §2, §3

Another experiment concerns ACHN. Described as above. As to conditions: Renal Cancer, 48 h. How it is done:
as §2, §3

A further experiment relates to SNB-75. The experiment is described as above. As to conditions: CNS Cancer, 48 h. On the procedure: as §2, §3
The test system of a further experiment is HCC-2998. Described as above. As to conditions: Colon Cancer, 48 h. How it is done: as §2, §3
A further experiment has as its system HOP-92. Described as above. The following applies: Non-Small Cell Lung Cancer, 48 h. How it is done:
as §2, §3

The next experiment relates to DU-145. The experiment is described as above. The following applies: Prostate Cancer, 48 h. How it is done: as §2, §3
A further experiment has as its system OVCAR-5. The description is as above. The following applies: Ovarian Cancer, 48 h. How it is done: as §2, §3
A further experiment has as its system HCT-15. The experiment is described as above. The following applies: Colon Cancer, 48 h. How it is done: as §2, §3
The subject of a further experiment is SK-MEL-28. The description is as above. The following applies: Melanoma, 48 h. On the procedure: as §2, §3
The next experiment deals with 786-0. Described as above. As to conditions: Renal Cancer, 48 h. How it is done:
as §2, §3

For another experiment, the system named is human cancer cell lines. The experiment can be described thus: Growth inhibition across the human cancer cell line panel (overall statement). As to conditions: wide range of human cancer cell lines, in words. On the procedure:
as §1, §2, §3

Another experiment has as its system RPMI-8226. The experiment can be described thus: DTP Human Tumor Cell Line Screen, sulforhodamine B assay. The following applies: Leukemia, 48 h. On the procedure:
as §2, §3

The next experiment concerns M14. Described as above. The following applies: Melanoma, 48 h. How it is done: as §2, §3

With `O=S1(=O)CC#CCOCCOCCOCCOCCOCCOCC#CC1` [Compound 2.47], the IC50 in experiment [1] was determined as 54.2 µM; with SN12C it was 13.2 µM; in the experiment with T-47D, 20.6 µM; with A-549/ATCC (Non-Small Cell Lung Cancer) it was 20.2 µM; with SF-295, 32 µM; with NCI-H522, 2.86 µM. Further, the IC50 in the experiment with ACHN came to 13.5 µM; in the experiment with SNB-75 it was 19.9 µM; in the experiment on HCC-2998 it was 19.1 µM; in the experiment with HOP-92 it was 10.9 µM; in the experiment with DU-145, 32.8 µM; in the experiment with OVCAR-5, 17.1 µM. Further, the IC50 in the experiment on HCT-15 came out at 15.5 µM; in the experiment on SK-MEL-28, 18.9 µM; in the experiment on 786-0, 11 µM. For the same compound, the “growth inhibitory properties against human cancer cell lines” value (“growth inhibitory properties” for short) with human cancer cell lines is reported as “display growth inhibitory properties”.

For the compound `O=S1(=O)CC#CCOCCOCCOCCOCCOCCOCCOCC#CC1` [Compound 2.48], the IC50 in experiment [1] was determined as 44.7 µM; in the experiment on SN12C, 18.8 µM; in the experiment on T-47D, 24.5 µM; in the experiment with RPMI-8226, 17.4 µM; with A-549/ATCC (Non-Small Cell Lung Cancer), 61.7 µM; in the experiment with SF-295, 81.2 µM. Further, the 50% inhibitory concentration (IC50) in the experiment on NCI-H522 stood at 10.6 µM; in the experiment on ACHN, 22.4 µM; with SNB-75 it was 32.6 µM; in the experiment on HCC-2998, 17.7 µM; in the experiment on HOP-92, 19.6 µM; with M14, 16.9 µM. The IC50 with DU-145 was > 100 µM; in the experiment on OVCAR-5 it was 18 µM; with HCT-15 it was 32.7 µM; with SK-MEL-28 it was 17.9 µM; in the experiment with 786-0 it was 18.4 µM. The “growth inhibitory properties” value with human cancer cell lines is recorded as “display growth inhibitory properties”.

As for `O=C(OCC1COCCOCCOCCOCCO1)c1ccc(CS(=O)(=O)CC#CCO)cc1` (centres unmarked) [Compound 3.2], the half-inhibitory concentration (IC50) is 30.3 µM with SN12C (Homo sapiens); 8.4 µM with RPMI-8226 (Homo sapiens); > 100 µM in the experiment with A-549/ATCC (Homo sapiens, A549, Non-Small Cell Lung Cancer); > 100 µM in the experiment with SF-295 (Homo sapiens); 18.8 µM with NCI-H522 (Homo sapiens); > 100 µM in the experiment with ACHN (Homo sapiens). Besides, the IC50 in the experiment with SNB-75 (Homo sapiens) was > 100 µM; with HCC-2998 (Homo sapiens), > 100 µM; in the experiment on HOP-92 (Homo sapiens) it was 41.6 µM; with M14 (Homo sapiens) it was > 100 µM; with DU-145 (Homo sapiens) it was > 100 µM; in the experiment with OVCAR-5 (Homo sapiens) it was > 100 µM. Also, the values for the IC50 in the experiment with HCT-15 (Homo sapiens), in the experiment with SK-MEL-28 (Homo sapiens) and in the experiment on 786-0 (Homo sapiens) were > 100 µM, > 100 µM and 35.3 µM, respectively. The “growth inhibitory properties” value in the experiment on human cancer cell lines is “modest growth inhibitory properties”.

For orientation: IC50 means the concentration that inhibits the measured activity by half.
